In patent US20040097543A1, “Use of cyclic 2,4-diphosphoclycerates (cdgp) and/or derivatives thereof in cosmetic and dermatological formulations” (priority 2000, published 2004):

What was measured:
[1] = test system: enzymes; test: Protection against thermally induced denaturation of enzymes; assay type: biochemical; conditions: in comparison with a number of other compatible solutes far and decidedly better
[2] = Stability properties (chemical, physical, pH, light); assay type: physicochemical
[3] = Half-life (hydrolysis); assay type: physicochemical; conditions: T = 120° C.
[4] = test system: LDH; test: Stabilization when freezing protein solutions (LDH); assay type: biochemical
[5] = Solubility in water; assay type: physicochemical

Structure (SMILES): O=C(O)[C@H]1COP(=O)(O)OP(=O)(O)O1 [Cyclic diphosphoglycerate, cyclic diphosphoglycerate]
- protective effect in respect of the thermally induced denaturation of enzymes [1]: excellent
- chemical and physical stability [2]: High
- half-life [3]: 150 h
- stabilizing properties when freezing protein solutions (LDH) [4]: good stabilizing properties
- solubility in water [5]: Excellent
